The values that follow are results of earlier work, collected in patent US20030143648A1, “Enzyme activity profiles” (priority 2001, published 2003).

The subject of the data set is FAAH. The conditions noted are these: pH 8.0.

In the case of `CCCCCCCC/C=C\CCCCCCCC(N)=O` [oleamide], the “kcat of FAAH for oleamide” value is “approximately 2 s −^1”.
